Measurements taken from paper PMC12396409, “Screening and hit evaluation of a microbial metabolite library against the pathogenic Plasmodium falciparum and Toxoplasma gondii parasites” (International Journal for Parasitology: Drugs and Drug …, 2025).
Like-named read-outs stand apart in the source and are kept apart here.

How the values were obtained:
[1] = test system: P. falciparum 3D7 parasites; assay: P. falciparum growth inhibition assay, 2-cycle (120 h treatment), delayed-death screen and dose-response; type: cell-based, Plasmodium falciparum; conditions: 120 h; for activity at 2 µg/mL: Plasmodium falciparum, 3D7
[2] = test system: T. gondii RH strain (RH-Tub-eYFP) tachyzoites; assay: microbe, parasite or virus in culture; type: cell-based, Toxoplasma gondii; conditions: 72 h, 72 h; for percent parasite growth at 2 µg/mL: Toxoplasma gondii
[3] = test system: P. falciparum 3D7 parasites; assay: P. falciparum growth inhibition assay, 1-cycle (72 h treatment), SYBR DNA staining (library screen at 2 μg/mL and dose-response); type: cell-based, Plasmodium falciparum; conditions: 72 h; for activity at 2 µg/mL: Plasmodium falciparum, 3D7
[4] = P. falciparum, screen at 2 μg/mL, replicate 1
[5] = P. falciparum, screen at 2 μg/mL, replicate 2
[6] = T. gondii, screen at 2 μg/mL, replicate 1
[7] = T. gondii, screen at 2 μg/mL, replicate 2
[8] = P. falciparum, parasite screen 2 μg/mL, % growth, replicate 1
[9] = P. falciparum, parasite screen 2 μg/mL, % growth, replicate 2
[10] = T. gondii, parasite screen 2 μg/mL, % growth, replicate 1
[11] = T. gondii, parasite screen 2 μg/mL, % growth, replicate 2
[12] = library screen at 2 μg/mL, % growth, replicate 1
[13] = library screen at 2 μg/mL, % growth, replicate 2

O=C(O)c1ccc[nH]1 [Pyrrole-2-carboxylic acid]
activity at 2 µg/mL ([1]; P. falciparum, parasite screen 2 μg/mL, % growth, replicate 1, read-out: Pf_120h_%Growth_Rep1): 88.6% | activity at 2 µg/mL ([1]; P. falciparum, parasite screen 2 μg/mL, % growth, replicate 2, read-out: Pf_120h_%Growth_Rep2): 136% | percent parasite growth at 2 µg/mL ([2]; T. gondii, parasite screen 2 μg/mL, % growth, replicate 1, read-out: Tg_72h_%Growth_Rep1): 130% | percent parasite growth at 2 µg/mL ([2]; T. gondii, parasite screen 2 μg/mL, % growth, replicate 2, read-out: Tg_72h_%Growth_Rep2): 86.8% | activity at 2 µg/mL ([3]; P. falciparum, parasite screen 2 μg/mL, % growth, replicate 1, read-out: Pf_72h_%Growth_Rep1): 86.7% | activity at 2 µg/mL ([3]; P. falciparum, parasite screen 2 μg/mL, % growth, replicate 2, read-out: Pf_72h_%Growth_Rep2): 115%

C[C@@H]1CCC[C@H](O)CCC/C=C/c2cc(O)cc(O)c2C(=O)O1 [Zearalenol, beta-]
Pf_120h_%Growth_Rep1 [1, 4]: 110.27% | Pf_120h_%Growth_Rep2 [1, 5]: 105.90% | Tg_72h_%Growth_Rep1 [2, 6]: 134.26% | Tg_72h_%Growth_Rep2 [2, 7]: 80.69% | Pf_72h_%Growth_Rep1 [3, 4]: 92.46% | Pf_72h_%Growth_Rep2 [3, 5]: 126.46%

CCO[C@@H]1[C@@H](OC)[C@H](C)O[C@@H](O[C@H]2C[C@H]3[C@@H]4C=C5C(=O)[C@H](C)[C@@H](O[C@H]6CC[C@H](N(C)C)[C@@H](C)O6)CCC[C@H](CC)OC(=O)C[C@H]5[C@@H]4C=C(C)[C@@H]3C2)[C@@H]1OC [spinosyn L, 3'-Ethoxy-]
Pf_120h_%Growth_Rep1 [1, 8]: 13.87% | Pf_120h_%Growth_Rep2 [1, 9]: 7.84% | Tg_72h_%Growth_Rep1 [2, 10]: 142.09% | Tg_72h_%Growth_Rep2 [2, 11]: 79.71% | Pf_72h_%Growth_Rep1 [3, 8]: 10.02% | Pf_72h_%Growth_Rep2 [3, 9]: -2.72%

C=C[C@@H](CO)[C@H]1CCN2CCc3c([nH]c4ccccc34)[C@@H]2C1 [Anthirine]
Pf_120h_%Growth_Rep1 [1, 12]: 66.95% | Pf_120h_%Growth_Rep2 [1, 13]: 48.16% | Tg_72h_%Growth_Rep1 [2, 12]: 43.71% | Tg_72h_%Growth_Rep2 [2, 13]: 53.47% | Pf_72h_%Growth_Rep1 [3, 12]: 73.25% | Pf_72h_%Growth_Rep2 [3, 13]: 82.22%

Viridicatumtoxin
Pf_120h_%Growth_Rep1 [1, 4]: 6.51% | Pf_120h_%Growth_Rep2 [1, 5]: 13.13% | Tg_72h_%Growth_Rep1 [2, 6]: 122.40% | Tg_72h_%Growth_Rep2 [2, 7]: 65.71% | Pf_72h_%Growth_Rep1 [3, 4]: 2.34% | Pf_72h_%Growth_Rep2 [3, 5]: 2.82%

COc1ccc(Cl)c(C)c1C(=O)O[C@@H]1C[C@H](O[C@H]2[C@H](O)C[C@H](O[C@H]3CCC[C@@H]4[C@@H]3C=C[C@H]3CCCC/C=C/[C@@H]5C=C(C(=O)O)[C@H](C)C[C@]56OC(=O)C(=C6O)OC(=O)[C@@]43C)O[C@@H]2C)O[C@H](C)[C@H]1O [Chlorothricin]
Pf_120h_%Growth_Rep1 [1, 4]: 151.59% | Pf_120h_%Growth_Rep2 [1, 5]: 96.98% | Tg_72h_%Growth_Rep1 [2, 6]: 75.08% | Tg_72h_%Growth_Rep2 [2, 7]: 94.25% | Pf_72h_%Growth_Rep1 [3, 4]: 106.01% | Pf_72h_%Growth_Rep2 [3, 5]: 86.61%

Cc1cc(O)c2c(c1)C(=O)C13C(=C2O)C(=O)C2C(O)C1C1C(O)C3C(=O)C3=C(O)c4c(O)cc(C)cc4C(=O)C321 (stereo not drawn) [Rugulosin + form]
Pf_120h_%Growth_Rep1 [1, 8]: 82.55% | Pf_120h_%Growth_Rep2 [1, 9]: 131.94% | Tg_72h_%Growth_Rep1 [2, 10]: 114.00% | Tg_72h_%Growth_Rep2 [2, 11]: 82.13% | Pf_72h_%Growth_Rep1 [3, 8]: 87.73% | Pf_72h_%Growth_Rep2 [3, 9]: 120.80%

CC(C)C[C@H](NC(=O)[C@@H](O)[C@H](N)Cc1ccccc1)C(=O)O [Bestatin]
activity at 2 µg/mL ([1]; library screen at 2 μg/mL, % growth, replicate 1, read-out: Pf_120h_%Growth_Rep1): 3.72% | activity at 2 µg/mL ([1]; library screen at 2 μg/mL, % growth, replicate 2, read-out: Pf_120h_%Growth_Rep2): 8.03% | percent parasite growth at 2 µg/mL ([2]; library screen at 2 μg/mL, % growth, replicate 1, read-out: Tg_72h_%Growth_Rep1): 89.8% | percent parasite growth at 2 µg/mL ([2]; library screen at 2 μg/mL, % growth, replicate 2, read-out: Tg_72h_%Growth_Rep2): 102% | activity at 2 µg/mL ([3]; library screen at 2 μg/mL, % growth, replicate 1, read-out: Pf_72h_%Growth_Rep1): 10.9% | activity at 2 µg/mL ([3]; library screen at 2 μg/mL, % growth, replicate 2, read-out: Pf_72h_%Growth_Rep2): 3.89%

O=C1N[C@@H](Cc2c[nH]c3ccccc23)C(=O)N[C@H]1Cc1c[nH]c2ccccc12 [Cyclo(L-Trp-L-Trp)]
Pf_120h_%Growth_Rep1 [1, 4]: 96.17% | Pf_120h_%Growth_Rep2 [1, 5]: 91.69% | Tg_72h_%Growth_Rep1 [2, 6]: 161.12% | Tg_72h_%Growth_Rep2 [2, 7]: 99.00% | Pf_72h_%Growth_Rep1 [3, 4]: 85.34% | Pf_72h_%Growth_Rep2 [3, 5]: 84.68%
